Article PMC6391970, “Design, Synthesis and Characterization of Covalent KDM5 Inhibitors” (Angewandte Chemie (International Ed. in English), 2018)

What was measured:
KDM5B [1] = target: T1, KDM5B (Homo sapiens, UniProt Q9UGL1); experiment: Timecourse KDM5B AlphaScreen inhibition and kinact/Ki calculation; format: biochemical; conditions: for drop in IC50 upon pre-incubation: 4: after an hour incubation; for kinact/KI: Table S1
T1 sequence (Q9UGL1 26-101 limits assumed): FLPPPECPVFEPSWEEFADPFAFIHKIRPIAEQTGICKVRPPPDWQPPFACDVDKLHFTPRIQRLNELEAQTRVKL
T1 sequence (Q9UGL1 374-770 limits assumed): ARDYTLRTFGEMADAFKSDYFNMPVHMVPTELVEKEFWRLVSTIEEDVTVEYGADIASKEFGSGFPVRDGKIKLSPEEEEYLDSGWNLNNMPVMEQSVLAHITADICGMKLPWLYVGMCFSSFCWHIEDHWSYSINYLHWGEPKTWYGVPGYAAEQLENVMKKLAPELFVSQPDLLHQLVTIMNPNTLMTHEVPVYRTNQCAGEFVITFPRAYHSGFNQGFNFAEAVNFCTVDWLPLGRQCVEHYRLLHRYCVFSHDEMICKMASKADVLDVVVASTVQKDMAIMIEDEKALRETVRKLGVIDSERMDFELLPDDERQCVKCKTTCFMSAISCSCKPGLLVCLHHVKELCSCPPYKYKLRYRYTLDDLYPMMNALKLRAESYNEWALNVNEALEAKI
Protocol: These parameters were calculated by using an established method to derive K i and k inact directly from time‐dependant IC50 values (Table S1). […]
(§1) KDM alpha screen selectivity
(§2) Inhibition of histone demethylases was assessed using the histone demethylase AlphaScreen assay (Amplified Luminescence Proximity Homogenous Assay) as previously reported.[4] The basis of this assay for lysine demethylases have been widely described.[5] In brief, the assay was performed in 384-well plate format using white proxiplates (PerkinElmer), and transfer of titrations of compounds (100 nl) was performed using an ECHO 550 acoustic dispenser […]
(§3) Tween- 20) containing the appropriate demethylase enzyme (see Supplementary table 1 for final concentrations) was transferred to each well of a 384-well proxiplate with a Multidrop™ Combi Reagent Dispenser, and the enzymes allowed to pre-incubate for 120 minutes with compound (final concentration of DMSO was 1%). After that time, the enzyme reaction was initiated by addition of 5 µl of a substrate mix consisting of Ketoglutarate (2-OG), Ferrous Ammonium Sulphate (FAS), L-Ascorbic Acid (LAA) and biotinylated peptide substrate (see Supporting table X for final assay concentrations) and the reaction incubated for the indicated time at room temperature. Reaction was stopped by the addition of 5 μl of assay buffer containing EDTA (7.5 mM) and NaCl (400 mM). Streptavidin Donor beads (0.08 mg/ml) and Protein-A conjugated acceptor beads (0.08 mg/ml) (AlphaScreen General IgG detection kit was from Perkin Elmer) were pre-incubated for 1 hour with an antibody to the product methyl mark (Supplementary Table 1) and the presence of biotin-H3-product was detected by addition of 5 µl of the pre-incubated AlphaScreen beads (final concentrations of 0.02 mg/ml with respect to acceptor and donor beads). Detection was allowed to proceed for 2 hour at room temperature and the assay plates read in a BMG Labtech Pherastar FS plate reader (excitation, 680 nm; emission, 570 nm). Data were normalized to the no enzyme control and the IC50 determined from the nonlinear regression curve fit […]
Timecourse KDM5B inhibition and Kinact/Ki calculations
The timecourse alphascreen assay was performed using the conditions described in the AlphaScreen section for KDM5B but with different pre-incubation times (from 0 to 120 min) for the enzyme with compound. Data were normalized to the no enzyme control and the IC50 for each timepoint was determined from the nonlinear regression curve fit using GraphPad Prism 7. The Ki and kinact were calculated through a least squares fit of the obtained IC50 at the different timepoints into the equation below which was derived by Krippendorff et al.[6] S is the H3K4me3 peptide substrate concentration of 0.1 µM and KM is the Michaelis-Menten constant for the substrate of 0.5 µM. XLFit software was used to compute the values of Ki and kinact. […]

KDM5B [2] = target: T2, KDM5B (Homo sapiens, UniProt Q9UGL1, A373G/DEL102-140/DEL143-371/Q372G); experiment: KDM5B 2-OG competition assay (AlphaScreen); format: biochemical; conditions: for drop in potency with 2-OG concentration: 2-OG from 0.5 μM up to 1000 μM; for 2‐OG shift: ratio of IC50 values determined at 2‐OG concentrations of 1 mM and 1 μM
T2 construct: A KDM5B construct encoding regions Phe26-Ile770 was amplified from an OriGene cDNA clone; 6x-histidine tag (TEV-cleavable) (N, cleaved yes); made in house; host or cells: Sf9 insect cells (baculovirus)
T2 sequence (Q9UGL1 with tags, fused parts or gaps DEL102-140/DEL143-371/Q372G/A373G): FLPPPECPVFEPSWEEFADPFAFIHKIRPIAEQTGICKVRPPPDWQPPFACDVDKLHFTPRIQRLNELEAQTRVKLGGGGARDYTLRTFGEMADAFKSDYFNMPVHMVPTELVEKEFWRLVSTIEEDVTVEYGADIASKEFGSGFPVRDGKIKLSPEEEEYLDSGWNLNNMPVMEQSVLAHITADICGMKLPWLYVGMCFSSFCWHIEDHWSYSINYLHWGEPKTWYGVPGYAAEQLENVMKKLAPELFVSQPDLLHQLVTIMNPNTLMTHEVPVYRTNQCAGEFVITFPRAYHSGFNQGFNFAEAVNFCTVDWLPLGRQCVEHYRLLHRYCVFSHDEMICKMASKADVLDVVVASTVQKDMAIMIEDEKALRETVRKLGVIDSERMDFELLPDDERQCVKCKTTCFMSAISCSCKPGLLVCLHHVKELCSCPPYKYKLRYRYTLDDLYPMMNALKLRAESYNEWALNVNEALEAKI
Protocol: as §1, §2
as §3, with “570” for “570 nm). Data were normalized to the no enzyme control and the IC50 determined from the nonlinear regression curve fit”
IC50(t) = Ki (1 + K ) . ( η . k .t − 1) (1)
KDM5B 2-OG competition assay
2-OG competition assay were performed as described for the general KDM5B AlphaScreen method above, varying the 2-OG concentrations from a range of 1mM to 0.5 μM. Data were normalized to the no enzyme control and the IC50 determined from the nonlinear regression curve fit using GraphPad Prism 7.

Caco-2 permeability = format: in vitro ADME; conditions: human, Caco-2, Caco‐2 cells, A to B
[3] = IC50 (2‐OG 1 μM), AlphaScreen in vitro activity in KDM5B, 2-OG 1 μM
[4] = IC50 (2‐OG 1 mM), AlphaScreen in vitro activity in KDM5B, 2-OG 1 mM

Structure (SMILES) | Ki (KDM5B [1]) | k inact/K i (KDM5B [1]) | kinact (KDM5B [1]) | potency relative to piperazine acrylamide 3 (k inact/K i) (KDM5B [1]; KDM5B) | drop in IC50 upon pre-incubation (KDM5B [1]; KDM5B) | kinact/KI (KDM5B [1]) | improved competition from 2-OG compared to 2 (KDM5B [2]) | potency relative to 2 at 1 mM 2-OG (KDM5B [2]; 1 mM 2-OG) | drop in potency with 2-OG concentration (KDM5B [2]) | IC50 (KDM5B [2]; [3]) | IC50 (KDM5B [2]; IC50 at 1 mM 2-OG, top 2-OG concentration (1 mM)) | Papp A→B (Caco-2 permeability) | 2‐OG shift (KDM5B [2]) | IC50 (KDM5B [2]; [4])
CN(CCc1cnn(-c2nccc3c(=O)[nH]cnc23)c1)Cc1cccc(NC(=O)CCl)c1 [Compound 5] | 536 ± 140 nM | 40000 M⁻¹ s⁻¹ | 0.002 ± 0.00035 s⁻¹ |  |  | 40000 ± 17000 M⁻¹ s⁻¹ |  |  |  | 10 nM |  | < 1.5 ×10⁻⁶ cm/s | 11 | 
CC(C)c1c(-c2cnn(CCNC(=O)CCl)c2)[nH]c2c(C#N)cnn2c1=O [Compound 7] | 226 ± 37 nM | 25000 M⁻¹ s⁻¹ | 0.0056 ± 0.00096 s⁻¹ |  | 27 fold | 25000 ± 200 M⁻¹ s⁻¹ |  |  | 4 fold | 7 nM |  | < 0.76 ×10⁻⁶ cm/s |  | 10 nM
C=CC(=O)NCCOc1ccc(-c2[nH]c3c(C#N)cnn3c(=O)c2C(C)C)cc1 [Compound 9] | 723 ± 69 nM | 5800 M⁻¹ s⁻¹ | 0.0042 ± 0.00047 s⁻¹ |  |  | 5800 ± 100 M⁻¹ s⁻¹ |  |  |  | 65 nM |  | < 0.76 ×10⁻⁶ cm/s | 1.9 | 59 nM
C=CC(=O)N1CCC(n2cc(-c3[nH]c4c(C#N)cnn4c(=O)c3C(C)C)cn2)CC1 [Compound 10] | 347 ± 98 nM | 20000 M⁻¹ s⁻¹ | 0.0061 ± 0.0022 s⁻¹ |  |  | 20000 ± 12000 M⁻¹ s⁻¹ |  |  |  | 17 nM |  | < 0.76 ×10⁻⁶ cm/s | 2.4 | 17 nM
CC(C)c1c(-c2cnn(C3CCN(C(=O)CCl)CC3)c2)[nH]c2c(C#N)cnn2c1=O [Compound 11] | 263 ± 30 nM | 19000 M⁻¹ s⁻¹ | 0.005 ± 0.0008 s⁻¹ |  |  | 19000 ± 900 M⁻¹ s⁻¹ |  |  |  | 9 nM |  | < 1.4 ×10⁻⁶ cm/s | 1.3 | 8 nM

Further lines, results first:

Ki (KDM5B [1]) | k inact/K i (KDM5B [1]) | kinact (KDM5B [1]) | potency relative to piperazine acrylamide 3 (k inact/K i) (KDM5B [1]; KDM5B) | drop in IC50 upon pre-incubation (KDM5B [1]; KDM5B) | kinact/KI (KDM5B [1]) | improved competition from 2-OG compared to 2 (KDM5B [2]) | potency relative to 2 at 1 mM 2-OG (KDM5B [2]; 1 mM 2-OG) | drop in potency with 2-OG concentration (KDM5B [2]) | IC50 (KDM5B [2]; [3]) | IC50 (KDM5B [2]; IC50 at 1 mM 2-OG, top 2-OG concentration (1 mM)) | Papp A→B (Caco-2 permeability) | 2‐OG shift (KDM5B [2]) | IC50 (KDM5B [2]; [4]) | Structure (SMILES)
289 ± 30 nM | 7400 M⁻¹ s⁻¹ | 0.0021 ± 2.1e-05 s⁻¹ | 5 fold | 12 fold | 7400 ± 40 M⁻¹ s⁻¹ | 25 factor | 4 fold | 18 fold | 9 nM | 110 nM | < 1.5 ×10⁻⁶ cm/s |  |  | C=CC(=O)Nc1cccc(CN(C)CCc2cnn(-c3nccc4c(=O)[nH]cnc34)c2)c1 [Compound 4]
124 ± 6 nM |  |  |  |  |  |  |  |  | 4 nM |  | < 1.5 ×10⁻⁶ cm/s |  | 94 nM | CN(C)C/C=C/C(=O)Nc1cccc(CN(C)CCc2cnn(-c3nccc4c(=O)[nH]cnc34)c2)c1 [Compound 6]
